Laboratory results as given in patent publication US12636352B2, “Functionalized enzyme-powered nanomotors” (FUNDACIO INSTITUT DE BIOENGINYERIA DE CATALUNYA, priority 2018, dated 2026).
Read-outs that look alike come from different tables or passages of the source.

Columns and labels:
[1] = test system: Human urinary bladder transitional cell papilloma RT4 cells
Protocol: 3D Cell Culture: Human urinary bladder transitional cell papilloma RT4 cells were cultured in McCoy's 5A (Modified) Medium, supplemented with FBS (10%) and penicillin-streptomycin solution (1%), in a 37° C. and 5% CO2 atmosphere. The cells were split every 4 days at a 1:2 ratio. To obtain 3D RT4 cell cultures, 8-well ibidi dishes were pre-coated with 23 μL of Matrigel™ (5 mg/mL) and incubated at 37° C. for 30 minutes, allowing the gel to form. Next, 30 μL of a suspension of RT4 cells at a density of 5×10^6 cells/mL was spread evenly in each well and the dishes were incubated for 30 minutes at 37° C. Finally, 150 μL of RT4 McCoy's medium containing 10% of Matrigel™ was added. The cultures were allowed to grow for 7 days before the experiments, changing the medium every 2 days.
Cytotoxicity Assays: The viability of RT4 3D cultures was quantified using the Alamar Blue assay and visualized using the LIVE/DEAD viability kit following manufacturer's instructions. […] After, the cultures were washed with medium, kept resting for 24 hours and viability was investigated according to manufacturer's instructions.
The spheroids were obtained by seeding RT4 cells in dishes coated with Matrigel™ which resembles the extracellular matrix and provides a 3D environment for cell growth. Then, the cultures were allowed to proliferate for 7 days and spheroid growth was monitored every day. […] After that, the cultures were washed with medium and cell viability and proliferation was assessed using the Alamar Blue assay.
It was further investigated the viability of the spheroids when exposed to the nanomotors (MSNP-Ur/PEG), under a range of concentrations of urea and at different incubation periods. The spheroids were incubated with 12.5 μg/mL of bare nanomotors or antibody-modified nanomotors at 0 mM, 25 mM, 30 mM and 40 mM of urea, for 1, 2 and 4 hours. Next, the cultures were thoroughly washed with medium to remove nanomotors and uncatalyzed urea and kept for 24 hours before analysis. The effect of the nanomotors on bladder cancer spheroids' viability was visualized using the LIVE/DEAD® viability kit and quantified using the Alamar Blue assay (FIG. 3).

[2] = FRET/Cy3 imaging of DNA-switch micromotors by confocal laser scanning microscopy; settings: micromotors in PBS, pH 5 or pH 9
Protocol: To test the functionality of the switch once conjugated to the micromotors, FRET efficiency was monitored through a Leica-SP5 confocal laser scanning microscope (CSLM) equipped with a 63× oil immersion objective (FIG. 6B). For this, micromotors were suspended in PBS either at pH 5 or pH 9 and placed in a 8-well glass bottom dish for their analysis under CSLM. The emission of the donor (Cy3) was recorded using a 564 nm diode laser. The FRET image was obtained by exciting the Cy3 fluorophore and detecting the acceptor (Cy5) emission. Using a custom-made ImageJ plug-in, quantification of the FRET efficiency was achieved by calculating the FRET/Cy3 ratio.
The capability of micromotors to simultaneously record local pH changes produced while they are self-propelling was assessed by combining both optical tracking and FRET imaging using CSLM, where 25 s videos were recorded at 3FPS. In the absence of fuel, a mean FRET/Cy3 ratio of 1.8±0.09 (mean±standard error of the mean) was observed.
To gain insights into the instantaneous pH change around the micromotors from the initial moment of the reaction, micromotors were immobilized onto a glass surface using APTES as a coating agent to provide positive surface charges and stabilize the electrostatic interactions with the negatively charged micromotors. […]

[3] = Fluorescence (ratiometric FRET) pH titration of DNA switch in solution; settings: 50 nM DNA switch
Protocol: Fluorescence measurements were carried out on a Cary Eclipse Fluorimeter (Varian), setting excitation wavelength to λex=530 nm (slitex=5 nm) and acquisition between 540 and 700 nm (slitem=5 nm) using quartz cuvettes of reduced volume (100 μL). All measurements were performed at T=25° C. in 10 mM HEPES. Switches were first diluted in HEPES 10 mM at the concentration of 1 μM. […]
The ratiometric FRET has been calculated as following:
Where FCyS is the maximum fluorescence emission of Cy5 (λem=670 nm) and FCy3 is the maximum fluorescence emission of Cy3 (λem=570 nm). The pH titration curves were obtained by plotting Rat. FRET vs hydronium ions concentration, and fitting the data with the following Langmuir-type equation: […]
Where Rat. FRETTRIPLEX and Rat. FRETDUPLEX represent the FRET signal of the switch in the triplex state (closed) and duplex state (open), respectively and where [H^+] represents the total concentration of hydrogen ions and
As a note, fluorophores employed here are not sensitive to pH in the range of pHs investigated (from pH 5.0 to pH 9.5) to avoid any interferences in the signal. It is important to note that this class of triplex-based switches show opening/closing kinetics sufficiently fast to allow the real time monitoring of pH variation (average time constant ˜100 ms).

NC(N)=O [Urea, urea]
spheroid viability (biocompatibility) [1]: not affecting spheroid viability

N [ammonia]
spheroid viability ([1]; 20 mM ammonia): > 70%
spheroid viability (biocompatibility) ([1]; 24 hours incubation, range of concentrations): increased cytotoxic trend with increasing concentrations
spheroid viability ([1]; 24 hours, all ammonia concentrations tested): > 70%

control switch: non-pH responsive hairpin DNA, SEQ ID NO: 3, Cy3/Cy5 labelled; tested conjugated to micromotors (DNA TCCTTGTCTGTCTGTCTGTCTGAACGTTTTTCGTTC; DNA, backbone not given here; further chemistry not fully specified)
FRET/Cy3 emission of switch-modified micromotors at different pH [2]: no significant differences

B1: DNA switch: triplex-forming single stranded DNA, SEQ ID NO: 1, labelled with Cy3 and Cy5 (nucleic acid)
DNA: TCCTTGTCTGTCTGTCTGTCTTTTTTGAAGAAGGAATTTATTCCTTCTTCGTTTGCTTCTTCCTT
modifications: DNA, backbone not given here; Cy3 and Cy5 labels, further chemistry not fully specified
FRET efficiency ([3]; acidic pH values): high FRET efficiency
FRET signal ([3]; pH of the solution increased (pH 5.0 to 9.5)): gradual decrease
